Experimental data: patent publication US4855321A, “Antihypercholesterolemic compounds” (Merck & Co., Inc., priority 1988, dated 1989)

Test system: HMG-CoA reductase
Test: HMG-CoA Reductase Inhibition Assay (in vitro, [14C]HMG-CoA, relative to compactin)
Type: biochemical, rat (male Holtzman Sprague-Dawley)
Details: compactin assigned 100; IC50 of test compound compared with that of compactin determined simultaneously; pH 7.2, 40 min, 37° C.; lactone converted in situ to sodium salt of dihydroxy acid
Method: The intrinsic HMG-CoA reductase inhibition activity of the claimed compounds is measured in the in vitro protocol published in J. Med. Chem., 28, p. 347-358 (1985) and described below:
Male Holtzman Sprague-Dawley rats (225-250 g) were kept on reversed lighting and fed Purina rat chow containing 3% cholestyramine for 7 days preceding their sacrifice by CO2 asphyxiation. Livers were removed 6 hours into the dark cycle and used immediately to prepare microsomes. […]
Test compounds or compactin (after first being converted to the sodium salt of their dihydroxy acid form in situ by addition of 1N NaOH (1 equivalent) were added to the assay system in 10-μl volumes at multiconcentration levels. After a 40-minute incubation at 37° C. to ensure the complete lactionization of mevalonic acid to mevalonolactone, 0.2 ml of the mixture was added to an 0.5×5.0 cm column containing 100-200 mesh BioRex 5, chloride form (Bio-Rad), wetted with distilled water, as described by Alberts et al., [J. Proc. Natl. Acad. Sci. U.S.A., 1980, 77, 3957]. The unreacted [^14 C]HMG-CoA was absorbed on the resin and the [^14 C] mevalonolactone was eluted with distilled water (2×1 ml) directly into 7-ml scintillation vials. Five milliliters of Aquasol-2 (New England Nuclear) was added to each vial, and radioactivity was measured in a Packard Tri Carb Prias scintillation counter. […]

- relative potency (intrinsic HMG-CoA reductase inhibitory activity) when compared to compactin at 100: 26.5
Structure (SMILES): Cc1cc(C)c(/C=C/[C@H]2C[C@H](O)CC(=O)O2)c(-c2ccc(F)c(CO)c2)c1 (relative stereo) [trans-(E)-6-[2-[4'-fluoro-3'-(hydroxymethyl)-3,5-dimethyl[1,1'-biphenyl]-2-yl]ethenyl]-3,4,5,6-tetrahydro-4-hydroxy-2H-pyran-2-one]
